Test results taken from patent US20240270821A1, “GIP/GLP1/GCG TRI-RECEPTOR AGONISTS AND USES THEREOF” (priority 2023, published 2024).
Read-outs that look alike come from different tables or passages of the source. Starred links: 1 amine or outer side, 2 acyl side, 3 side chain; linkers in the order of their positions; H or OH if unused. Non-standard residues stand in square brackets, D forms with d. Groups on a side chain read outwards from the residue. No end group written: not given here. *: point of attachment. C18 diacid = O=C(O)CCCCCCCCCCCCCCCCC(=O)*; αMePhe(2-F) = C[C@](N)(Cc1ccccc1F)C(=O)O; γGlu = O=C(O)[C@H](CCC(=O)[*:2])N[*:1]; αMe4Pal = C[C@](N)(Cc1ccncc1)C(=O)O; αMeY = C[C@](N)(Cc1ccc(O)cc1)C(=O)O; 4Pal = N[C@@H](Cc1ccncc1)C(=O)O; αMeL = CC(C)C[C@](C)(N)C(=O)O; αMeS = C[C@](N)(CO)C(=O)O; Orn = NCCC[C@H](N)C(=O)O; AEEA = NCCOCCOCC(=O)O; Aib = CC(C)(N)C(=O)O

What was measured:
[1] = system: Intestinal organoid from Göttingen minipig jejunum tissue, 2D monolayer; experiment: Cell based in vitro permeability (Papp) assay; assay type: in vitro ADME
Experimental: Intestinal organoid from Göttingen minipig jejunum tissue and its 2D monolayer are generated using the protocol previously described ([…]-Thiele, […].; Wells, J. M., Optimized procedures for generating an enhanced, near physiological 2D culture system from porcine intestinal organoids. […] After 7 days of culture, organoids are dissociated into single cells by TrypLE (GIbco), and the single cell suspension is added in 24-well transparent transwell inserts (0.3 cm^2, Falcon, BD). […] Samples from the basal compartment are collected at 20 min in the presence of C10. Peptide concentrations in the apical and basal compartments are measured by LC/MS, and the apparent permeability coefficient (Papp) is calculated as previously described (Twarog, C.; Liu, K.; O'Brien, P. J.; Dawson, […] head-to-head Caco-2 assay comparison of the mechanisms of action of the intestinal permeation enhancers: SNAC and sodium caprate (C10).

hGIPR [2] = biological target: T1, hGIPR (Homo sapiens, UniProt P48546); experiment: Functional cAMP activity in the presence of 1% HSA; assay type: cell-based; conditions: read-out: cAMP Rel EC50, hGIPR
T1 sequence (P48546 22-466): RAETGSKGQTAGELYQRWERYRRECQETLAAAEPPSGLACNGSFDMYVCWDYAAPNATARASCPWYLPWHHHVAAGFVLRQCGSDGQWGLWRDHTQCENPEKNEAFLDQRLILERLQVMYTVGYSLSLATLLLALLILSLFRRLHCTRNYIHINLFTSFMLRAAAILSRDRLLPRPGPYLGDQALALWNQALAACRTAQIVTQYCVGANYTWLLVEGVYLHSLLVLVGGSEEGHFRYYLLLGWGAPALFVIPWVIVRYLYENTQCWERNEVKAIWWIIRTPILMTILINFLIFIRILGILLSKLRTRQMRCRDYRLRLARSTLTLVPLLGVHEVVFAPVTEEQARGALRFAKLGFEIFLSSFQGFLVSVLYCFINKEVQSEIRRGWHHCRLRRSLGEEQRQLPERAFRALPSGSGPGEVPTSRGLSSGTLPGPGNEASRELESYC

hGLP-1R [3] = biological target: T2, hGLP-1R (Homo sapiens, UniProt P43220); experiment: Functional cAMP activity in the presence of 1% HSA; assay type: cell-based; conditions: read-out: cAMP Rel EC50, hGLP-1R
human GcgR = human GcgR (Homo sapiens, UniProt P47871); experiment: Functional cAMP activity in the presence of 1% HSA; assay type: cell-based; conditions: read-out: cAMP Rel EC50, hGcgR
hGIPR [4] = biological target: T1, hGIPR; experiment: Functional cAMP activation in the presence of 0.1% casein (no HSA); assay type: cell-based; conditions: read-out: Relative cAMP EC50, hGIPR;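 on Relative cAMP EC50, hGIPR: intracellular cAMP rise after 30 min at 37 °C read by HTRF against a standard curve, scaled between buffer alone (0%) and top control ligand concentration (100%), four-parameter fit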;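 on Relative cAMP EC50, hGLP-1R: intracellular cAMP rise after 30 min at 37 °C read by HTRF, normalized between buffer only (0%) and maximal control ligand (100%), four-parameter variable-slope fit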;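 on Relative cAMP EC50, hGcgR: intracellular cAMP rise after 30 min at 37 °C, read by HTRF against a cAMP standard curve, scaled from buffer only (0%) to maximal control ligand response (100%)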
hGLP-1R [5] = biological target: T2, hGLP-1R; experiment: as above; assay type: cell-based; conditions: read-out: Relative cAMP EC50, hGLP-1R
hGcgR = hGcgR (Homo sapiens, UniProt P47871); experiment: as above; assay type: cell-based; conditions: read-out: Relative cAMP EC50, hGcgR;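 further: intracellular cAMP rise after 30 min at 37 °C, read by HTRF against a cAMP standard curve, scaled from buffer only (0%) to maximal control ligand response (100%)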
[6] = in the presence of 0.1% casein (no HSA), geometric mean

Sequence of human GcgR (P47871 26-477): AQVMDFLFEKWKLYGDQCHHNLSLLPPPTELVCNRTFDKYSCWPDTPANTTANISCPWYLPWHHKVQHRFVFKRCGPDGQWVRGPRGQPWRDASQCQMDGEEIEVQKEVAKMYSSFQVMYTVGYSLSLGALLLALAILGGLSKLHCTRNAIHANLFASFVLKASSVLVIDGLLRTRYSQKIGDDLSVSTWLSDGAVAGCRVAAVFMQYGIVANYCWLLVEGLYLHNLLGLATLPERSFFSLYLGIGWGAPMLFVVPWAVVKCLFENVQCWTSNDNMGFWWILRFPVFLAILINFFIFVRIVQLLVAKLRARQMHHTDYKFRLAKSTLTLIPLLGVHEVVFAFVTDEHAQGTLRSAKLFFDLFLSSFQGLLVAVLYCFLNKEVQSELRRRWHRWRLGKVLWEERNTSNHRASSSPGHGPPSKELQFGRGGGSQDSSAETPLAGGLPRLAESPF
Sequence of hGcgR (P47871 26-477): as above
T2 sequence (P43220 24-463): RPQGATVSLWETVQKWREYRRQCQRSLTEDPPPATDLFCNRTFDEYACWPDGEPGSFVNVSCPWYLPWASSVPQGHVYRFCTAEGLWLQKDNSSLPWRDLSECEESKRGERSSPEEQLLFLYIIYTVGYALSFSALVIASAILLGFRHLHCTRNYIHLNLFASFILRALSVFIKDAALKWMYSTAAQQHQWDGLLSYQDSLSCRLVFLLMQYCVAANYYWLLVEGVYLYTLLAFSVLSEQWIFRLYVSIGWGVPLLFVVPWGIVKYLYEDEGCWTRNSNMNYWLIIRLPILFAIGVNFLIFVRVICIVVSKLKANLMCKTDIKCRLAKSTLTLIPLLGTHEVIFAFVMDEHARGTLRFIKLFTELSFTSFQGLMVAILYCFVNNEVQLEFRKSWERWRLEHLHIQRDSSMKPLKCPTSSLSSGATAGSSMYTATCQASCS

Molecule	Relative Papp (Compared to internal standard) [1]	EC50 (hGIPR [2]) [nM]	EC50 (hGLP-1R [3]) [nM]	EC50 (human GcgR) [nM]	EC50 (hGIPR [4]) [nM]	EC50 (hGLP-1R [5]) [nM]	EC50 (hGcgR) [nM]	EC50 (hGIPR [4]; [6]) [nM]	EC50 (hGLP-1R [5]; [6]) [nM]	EC50 (hGcgR; [6]) [nM]
CC[C@H](C)[C@H](NC(=O)[C@H](Cc1ccccc1)NC(=O)[C@H](C)NC(=O)C(C)(C)NC(=O)[C@H](CCC(N)=O)NC(=O)[C@H](C)NC(=O)[C@H](CCCCNC(=O)COCCOCCNC(=O)CC[C@H](NC(=O)CCCCCCCCCCCCCCCCC(=O)O)C(=O)O)NC(=O)[C@H](CCCCN)NC(=O)[C@H](CC(=O)O)NC(=O)[C@H](CC(C)C)NC(=O)[C@](C)(CC(C)C)NC(=O)[C@H](CCCN)NC(=O)[C@H](CO)NC(=O)[C@H](Cc1ccccc1)NC(=O)[C@H](CC(=O)O)NC(=O)[C@H](CO)NC(=O)[C@@H](NC(=O)[C@H](Cc1ccccc1)NC(=O)[C@@H](NC(=O)CNC(=O)[C@H](CCC(N)=O)NC(=O)C(C)(C)NC(=O)[C@@H](N)Cc1ccc(O)cc1)[C@@H](C)O)[C@@H](C)O)C(=O)N[C@@H](CCC(=O)O)C(=O)N[C@@H](Cc1c[nH]c2ccccc12)C(=O)N[C@@H](CC(C)C)C(=O)N[C@@H](CC(C)C)C(=O)N[C@@H](CCC(=O)O)C(=O)NCC(=O)NCC(=O)N1CCC[C@H]1C(=O)N[C@@H](CO)C(=O)N[C@@H](CO)C(=O)NCC(=O)N[C@@H](C)C(=O)N1CCC[C@H]1C(=O)N1C[C@H](O)C[C@H]1C(=O)N1CCC[C@H]1C(=O)N[C@@H](CO)C(=O)NCC(=O)N[C@@H](CCC(=O)O)C(N)=O [Example 137]	0.04	–	–	–	–	–	–	–	–	–
CC[C@H](C)[C@H](NC(=O)[C@H](Cc1ccccc1)NC(=O)[C@H](C)NC(=O)C(C)(C)NC(=O)[C@H](CCC(N)=O)NC(=O)[C@H](C)NC(=O)[C@H](CCCCNC(=O)COCCOCCNC(=O)CC[C@H](NC(=O)CCCCCCCCCCCCCCCCC(=O)O)C(=O)O)NC(=O)[C@H](CCCCN)NC(=O)[C@H](CC(=O)O)NC(=O)[C@H](CC(C)C)NC(=O)[C@](C)(CC(C)C)NC(=O)[C@H](CCCN)NC(=O)[C@H](CO)NC(=O)[C@H](Cc1ccccc1)NC(=O)[C@H](CC(=O)O)NC(=O)[C@H](CO)NC(=O)[C@@H](NC(=O)[C@H](Cc1ccccc1)NC(=O)[C@@H](NC(=O)CNC(=O)[C@H](CCC(N)=O)NC(=O)C(C)(C)NC(=O)[C@@H](N)Cc1ccc(O)cc1)[C@@H](C)O)[C@@H](C)O)C(=O)N[C@@H](CCC(=O)O)C(=O)N[C@@H](Cc1ccc(O)cc1)C(=O)N[C@@H](CC(C)C)C(=O)N[C@@H](CC(C)C)C(=O)N[C@@H](CCC(=O)O)C(=O)N[C@H](C)C(=O)NCC(=O)N1CCC[C@H]1C(=O)N[C@@H](CO)C(=O)N[C@@H](CO)C(=O)NCC(=O)N[C@@H](C)C(=O)N1CCC[C@H]1C(=O)N1CCC[C@H]1C(=O)N1CCC[C@H]1C(=O)N[C@@H](CO)C(=O)NCC(=O)N[C@H](C(=O)O)[C@@H](C)O [Example 213]	0.26	–	–	–	–	–	–	–	–	–
CC[C@H](C)[C@H](NC(=O)[C@H](Cc1ccccc1)NC(=O)[C@H](CCCN)NC(=O)C(C)(C)NC(=O)[C@H](CCC(N)=O)NC(=O)[C@H](C)NC(=O)[C@H](CCCCNC(=O)[C@@H](CCC(=O)O)NC(=O)CC[C@H](NC(=O)CCCCCCCCCCCCCCCCC(=O)O)C(=O)O)NC(=O)[C@H](CCCN)NC(=O)[C@H](CC(=O)O)NC(=O)[C@H](CC(C)C)NC(=O)[C@](C)(CC(C)C)NC(=O)[C@@H](NC(=O)[C@](C)(CO)NC(=O)[C@H](Cc1ccncc1)NC(=O)[C@H](CC(=O)O)NC(=O)[C@H](CO)NC(=O)[C@@H](NC(=O)[C@](C)(Cc1ccccc1F)NC(=O)[C@@H](NC(=O)CNC(=O)[C@H](CCC(N)=O)NC(=O)C(C)(C)NC(=O)[C@@H](N)Cc1ccc(O)cc1)[C@@H](C)O)[C@@H](C)O)[C@@H](C)CC)C(=O)N[C@H](CCC(=O)O)C(=O)N[C@@](C)(Cc1ccc(O)cc1)C(=O)N[C@@H](CC(C)C)C(=O)N[C@@H](CCC(N)=O)C(=O)N[C@@H](CCC(=O)O)C(=O)NCC(=O)NCC(=O)N1CCC[C@H]1C(=O)N[C@@H](CO)C(=O)N[C@@H](CO)C(=O)NCC(=O)N[C@@H](CCC(=O)O)C(=O)N1CCC[C@H]1C(=O)N1CCC[C@H]1C(=O)N1CCC[C@H]1C(=O)N[C@@H](CCC(=O)O)C(=O)NCC(=O)N[C@H](C(=O)N[C@@H](CCC(=O)O)C(=O)N[C@@H](CCC(=O)O)C(N)=O)[C@@H](C)O [Example 595]	0.55	1.73	30.4	353	0.0338	0.53	5.06	–	–	–
H-Y[Aib]QGTFTSDFS[Orn][αMeL]LDKK([AEEA-AEEA-γGlu-C18 diacid])AQ[Aib]AFIEYLLE[Aib]GHSSGAPPPSGT-NH2 [Example 182]	0.12	9.95	398	1480	–	–	–	0.0781	4.8	5.33
H-Y[Aib]QGTFTSDFS[Orn][αMeL]LDKK([AEEA-γGlu-C18 diacid])AQ[Aib]AFIEYLLEGGPSSGAPPPEGS-NH2 [Example 130]	0.06	60.5	865	1080	–	–	–	0.411	4.29	3.74
H-Y[Aib]QGTFTSDFS[Orn][αMeL]LDKK([AEEA-γGlu-C18 diacid])AQ[Aib]AFIEYLLE[dA]GPSSGAPPPSGS [Example 212]	0.22	–	–	–	–	–	–	–	–	–
H-Y[Aib]QGTFTSDFS[Orn][αMeL]LDKK([γGlu-γGlu-C18 diacid])AQ[Aib]AFIEYLLEGGPSSGAPPPGGS-NH2 [Example 198]	0.12	38.8	761	1300	–	–	–	0.182	4.36	6.85
H-Y[Aib]QGTFTSD[4Pal]SQ[αMeL]LD[Orn]K([Glu-γGlu-C18 diacid])AQ[αMe4Pal]AFIEYLIAGGPSSGAPPPSGSEE-NH2 [Example 1033]	0.14	–	–	–	–	–	–	–	–	–
H-Y[Aib]QGTFTSD[4Pal]S[Orn][αMeL]LDKK([AEEA-γGlu-C18 diacid])AQ[αMe4Pal]AFIEYLIE[Aib]GPSSGAPPPSGS-NH2 [Example 808]	0.29	27.3	406	286	–	–	–	0.187	3.58	1.65
H-Y[Aib]QGT[αMePhe(2-F)]TSD[4Pal]SILLDKK([γGlu-γGlu-C18 diacid])AQ[Aib]AFIE[αMe4Pal]LEEGGPSSGAPPPSGTE-NH2 [Example 552]	0.53	1.67	86.2	289	0.0177	0.804	2.53	–	–	–
H-Y[Aib]QGT[αMePhe(2-F)]TSD[4Pal]SILLDKK([γGlu-γGlu-C18 diacid])AQ[Aib]AFIE[αMeY]LEEGGPSSGAPPPSGSGE-NH2 [Example 666]	0.85	1.39	32.3	224	0.0203	0.337	2	–	–	–
H-Y[Aib]QGT[αMePhe(2-F)]TSD[4Pal]SILLD[Orn]K([AEEA-γGlu-C18 diacid])AQ[αMe4Pal]EFI[dE][αMeY]LLEGGPSSGAPPPSGS-NH2 (C-terminus assumed) [Example 670]	0.46	–	–	–	–	–	–	–	–	–
H-Y[Aib]QGT[αMePhe(2-F)]TSD[4Pal]SI[αMeL]LD[Orn]K([AEEA-γGlu-C18 diacid])AQ[αMe4Pal][Orn]FI[dE][αMeY]LIEGGPSSGEPPPEGE-NH2 [Example 675]	0.36	1.16	25	207	0.0111	0.254	2.15	–	–	–
H-Y[Aib]QGT[αMePhe(2-F)]TSD[4Pal][αMeS]I[αMeL]LD[Orn]K([AEEA-γGlu-C18 diacid])AQ[αMe4Pal]EFI[dE][αMeY]LIEGGPSSGEPPPSGS-NH2 [Example 710]	0.35	0.589	28.7	126	0.00578	0.274	1.52	–	–	–
